Results reported in US11292766B2, “Substituted piperidine compound and use thereof” (Takeda Pharmaceutical Company Limited, priority 2016, dated 2022).

Molecular target: human orexin type 2 receptor (hOX2R) (Homo sapiens (Human), UniProt O43614)
Experiment: Measurement of orexin type 2 receptor agonist activity (Experimental Example 2-1, FLIPR intracellular Ca2+)
Type: cell-based
From the text: To obtain a cell clone stably expressing human orexin type 2 receptor, human orexin type 2 receptor cDNA was inserted into pcDNA3.1(+) plasmid vector (Invitrogen), and a plasmid DNA for expression of human orexin type 2 receptor (pcDNA3.1(+)/hOX2R) was cloned. The plasmid DNA was introduced into CHO-dhfr cell by an electroporation method, and human orexin type 2 receptor expressing clone cells were obtained by limiting dilution method by using G418 drug resistance as a selection marker.
Chinese hamster ovary (CHO) dhfr-cells forcibly expressing human orexin type 2 receptor (hOX2R) were seeded in each well of Black clear bottom plate (384 wells) (Becton, Dickinson and Company) by 10,000 cells, and cultured for 16 hr in an MEM-alpha (Nikken-Bio Co., Ltd.) medium containing 100 U/ml penicillin, 100 μg/ml streptomycin, […] G418 (all above Invitrogen), and 10% fetal calf serum (Thermo), under the conditions of 37° C., 5% CO2. […] A test compound was dissolved in dimethyl sulfoxide to 10 mM, and then diluted with assay buffer 2 (20 mM HEPES, Hanks' balanced salt solution (Invitrogen), 0.1% bovine serum albumin). For the reaction, a test compound solution (10 μL) was added using Fluorescent Imaging Plate Reader TETRA (FLIPR TETRA; manufactured by Molecular Devices), a fluorescence value (excitation wavelength 488 nm, measurement wavelength 570 nm) of each well was measured every one second for 1 min, and the agonist activity was determined using the area of the fluorescence value as an indicator of intracellular Ca^2+ concentration.

[1] = CHO dhfr- cells expressing hOX2R, FLIPR TETRA Ca2+ fluorescence (Exp. Ex. 2-1)

human orexin type 2 receptor (hOX2R), sequence (O43614 whole entry): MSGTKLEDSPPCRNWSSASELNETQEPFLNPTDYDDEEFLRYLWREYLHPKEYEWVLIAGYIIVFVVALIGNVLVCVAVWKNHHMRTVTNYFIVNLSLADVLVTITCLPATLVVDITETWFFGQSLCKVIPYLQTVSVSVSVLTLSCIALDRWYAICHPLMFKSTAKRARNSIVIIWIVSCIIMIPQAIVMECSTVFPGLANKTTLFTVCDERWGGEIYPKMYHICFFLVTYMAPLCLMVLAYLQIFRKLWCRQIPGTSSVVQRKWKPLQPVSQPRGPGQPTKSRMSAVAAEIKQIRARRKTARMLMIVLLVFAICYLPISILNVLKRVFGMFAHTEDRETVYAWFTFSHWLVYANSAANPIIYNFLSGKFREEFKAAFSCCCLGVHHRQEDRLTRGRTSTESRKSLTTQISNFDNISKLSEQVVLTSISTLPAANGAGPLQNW

EC50 [1] | Emax at 30 µM (value at 30 uM concentration, orexin B as full agonist = 100%) | Compound | Emax (%) [1]
23 nM |  | COc1cccc([C@H]2CC[C@@H](OC[C@H]3[C@@H](NS(C)(=O)=O)CCCN3C(=O)C3CC3)CC2)c1 [Example 304, N-((2R,3S)-1-(cyclopropylcarbonyl)-2-(((cis-4-(3-methoxyphenyl)cyclohexyl)oxy)-methyl)piperidin-3-yl) methanesulfonamide] | 
 | 98% | COc1ccccc1[C@H]1CC[C@@H](OC[C@H]2[C@@H](NS(C)(=O)=O)CCCN2C(=O)C2CC2)CC1 [Example 28, N-((2R,3S)-1-(cyclopropylcarbonyl)-2-(((cis-4-(2-methoxyphenyl)cyclohexyl)oxy)methyl)piperidin-3-yl)methanesulfonamide] | 
15 nM |  | CCOC(=O)N1CCC[C@H](NS(C)(=O)=O)[C@@H]1CO[C@H]1CC[C@@H](c2ccccc2)CC1 [Example 303, ethyl (2R,3S)-3-((methylsulfonyl)amino)-2-(((cis-4-phenylcyclohexyl)oxy)methyl)-piperidine-1-carboxylate] | 

Compound | EC50 [1] | Emax at 30 µM (value at 30 uM concentration, orexin B as full agonist = 100%) | Emax (%) [1]
cis-N-ethyl-3- ((methylsulfonyl)amino)-2- (((cis-2-phenyl-1,3-dioxan- 5-yl)oxy)methyl) piperidine-1-carboxamide [Example 140] | 390 nM |  | 92%
